This data set in a line: physchem. The note with it: 30 °C, pH 7.5, aqueous buffer. Type of data set: physicochemical. As to the method: This process can be carried out in reaction mixtures comprised of two phases: an aqueous phase, which initially contains enzyme and dissolved 2-isobutyl-succinonitrile, and an organic phase, which consist mainly of racemic 2-isobutyl-succinonitrile. Two-phase reaction mixtures are prepared by adding 2-isobutyl-succinonitrile to an aqueous solution of enzyme and buffer agents such that the amount of 2-isobutyl-succinonitrile added exceeds it aqueous solubility limit. The aqueous solubility limit of 2-isobutyl-succinonitrile in 50 mM potassium phosphate (30° C., pH 7.5) is approximately 0.06M. Over the course of the reaction, (S)-3-cyano-5-methylhexanoic acid ammonium salt is formed and increases in concentration in the aqueous phase, while the organic phase decreases in volume and becomes enriched in (R)-2-isobutyl-succinonitrile. Alternately, this process can also be carried out in reaction mixtures comprised of three phases: an aqueous phase, which initially contains dissolved 2-isobutyl-succinonitrile, an organic phase, which consists mainly of racemic 2-isobutyl-succinonitrile, and a solid phase, which consists of enzyme immobilized on an insoluble support. Three-phase reaction mixtures are prepared by the procedure described for two-phase reaction mixture except that an enzyme immobilized on an insoluble support is used in place of an un-immobilized enzyme.

Converted amounts (≈) assume the structure as drawn.

Broadly, the solubility is the dissolved amount per volume that the medium holds. Read a low solubility as a poorly soluble substance. For the compound `CC(C)CC(C#N)CC#N` (racemic) [2-isobutyl-succinonitrile], the solubility was roughly 60 mM (≈ 8170 µg/mL).

For the origin of these results see patent US8304252B2, “Stereoselective bioconversion of aliphatic dinitriles into cyano carboxylic acids” (Pfizer Inc., priority 2004, dated 2012).
